Reference: article PMC6257762, “Isoquinolines from the Roots of Thalictrum flavum L. and Their Evaluation as Antiparasitic Compounds” (Molecules, 2010)
“And” between values parts separate entries of the source, which are not always exact repeats. Identical values can stand only once. Like-named read-outs stand apart in the source and are kept apart here.

Key:
MCR-5 cells = assay: Cytotoxicity towards MCR-5 (MRC5) cells; type: cell-based
Method: (§1) 3.3. Evaluations of cytotoxicity towards MCR-5 and KB cells
(§2) Cytotoxicities were evaluated at the ICSN-CNRS (Gif sur Yvette, France) on MRC5 and KB cells, in DMSO, at 10 and 1 µg/mL according to the procedure described by Moret et al..

[1] = system: Plasmodium falciparum FcB1 Colombia; assay: In vitro P. falciparum culture antimalarial activity assay; type: cell-based
Method: 3.4. In vitro P. falciparum culture and activity assays
Antimalarial activity was evaluated on FcB1 Colombia strain of Plasmodium falciparum according to a previously described procedure.

Leishmania major = assay: In vitro leishmanicidal activity, promastigote susceptibility (Uptiblue micromethod); type: cell-based; details: promastigotes, MHOM/Il/81/BNI, 96 h at 26 °C
Method: 3.5. In vitro leishmanicidal activity
Leishmania major (MHOM/Il/81/BNI) was cultivated at 26 °C in a Schneider’s insect medium (Sigma, St Quentin Fallavier, France) supplemented with 15% foetal bovine serum (FBS) (Sigma), penicillin (100 IU/mL) and streptomycin (50 µg/mL). Exponentially growing cells were maintained at 26 °C. Promastigote susceptibility testing was performed with the Uptiblue® micromethod previously described. Briefly, 100 µL of a […] promastigotes/mL suspension were placed into wells of a 96-well microplate (Nunc®). The cultures were exposed for 96 h at 26 °C to the antileishmanial drugs at the concentrations used above, except for meglumine antimoniate for which dilutions were 0.2, 2 and 20 mg·mL^-1. Four h before measurement, 10 µL of Uptiblue® were added. The fluorescence was measured at 590 nm with an excitation at 550 nm.

KB cells = assay: Cytotoxicity towards KB cells; type: cell-based
Method: as §1, §2

[2] = parameters: method as in PMID 17109902; details: quaternary protoberberines, as expected; cited from earlier work
[3] = Plasmodium falciparum, FcB1 Colombia strain, read-out: Antimalarial IC50 Plasmodium falciparum FcB1 Colombia
[4] = Plasmodium falciparum, FCB1, read-out: Antimalarial IC50 Plasmodium falciparum FcB1 Colombia

## COc1cc2c(cc1OC)C(Cc1ccc(O)cc1)N(C)CC2 (single isomer, unassigned; (-)) [(-)-Armepavine 9, (-)-armepavine]
MCR-5 cells; human, 10 µg/mL
  Cytotoxicity MCR-5 cells 10 µg/mL: 0
[1]; [3]
  IC50: 3.6 µg/mL and 11.4 µM

## COc1cc2c3c(c1OC)Oc1c(OC)c(OC)cc4c1C(Cc1ccc(O)c(c1)Oc1ccc(cc1)CC2N(C)CC3)NCC4 (single isomer, unassigned; (-)) [(-)-Northalfoetidine 5, (-)-northalfoetidine]
MCR-5 cells; human, 10 µg/mL
  Cytotoxicity MCR-5 cells 10 µg/mL: 6
[1]; [3]
  IC50: 2.8 µg/mL and 4.5 µM
Leishmania major; Leishmania major
  IC50: 39 µg/mL and 63 µM

## COc1ccc2cc1Oc1ccc(cc1)CC1c3cc(OC)c(OC)c(c3CCN1C)Oc1c(OC)c(OC)cc3c1C(C2)NCC3 (single isomer, unassigned; (-)) [(-)-Northalidasine 2, (-)-northalidasine]
MCR-5 cells; human, 10 µg/mL
  Cytotoxicity MCR-5 cells 10 µg/mL: 0
[1]; [3]
  IC50: 3.4 µg/mL and 5.2 µM
Leishmania major; Leishmania major
  IC50: 27 µg/mL and 41 µM

## COc1ccc2cc1Oc1ccc(cc1)CC1c3cc(OC)c(OC)c(c3CCN1C)Oc1c(O)c(OC)cc3c1C(C2)NCC3 (single isomer, unassigned; (-)) [(-)-Northalrugosidine 3, (-)-northalrugosidine]
MCR-5 cells; human, 1 µg/mL
  Cytotoxicity MCR-5 cells 1 µg/mL: 0
MCR-5 cells; human, 10 µg/mL
  Cytotoxicity MCR-5 cells 10 µg/mL: 77
[1]; [3]
  IC50: 2.7 µg/mL and 4.3 µM
Leishmania major; Leishmania major
  IC50: 30 µg/mL and 48 µM

## COc1cc2c3c(c1OC)Oc1c(OC)c(OC)cc4c1C(Cc1ccc(O)c(c1)Oc1ccc(cc1)CC2N(C)CC3)N(C)CC4 (single isomer, unassigned; (-)) [(-)-Thalfoetidine 4, (-)-thalfoetidine]
MCR-5 cells; human, 1 µg/mL
  Cytotoxicity MCR-5 cells 1 µg/mL: 0
MCR-5 cells; human, 10 µg/mL
  Cytotoxicity MCR-5 cells 10 µg/mL: 62
[1]; [3]
  IC50: 2.1 µg/mL and 3.3 µM
Leishmania major; Leishmania major
  IC50: 17 µg/mL and 27 µM

## COc1cc2c3c(c1O)Oc1c4c(cc(OC)c1OC)C(Cc1ccc(cc1)Oc1cc(ccc1O)CC3N(C)CC2)N(C)CC4 (single isomer, unassigned; (-)) [(-)-Thaligosidine 6, (-)-thaligosidine]
MCR-5 cells; human, 1 µg/mL
  Cytotoxicity MCR-5 cells 1 µg/mL: 0
MCR-5 cells; human, 10 µg/mL
  Cytotoxicity MCR-5 cells 10 µg/mL: 61
[1]; [3]
  IC50: 1.2 µg/mL and 2 µM
Leishmania major; Leishmania major
  IC50: 38 µg/mL and 61 µM

## COc1cc2c(cc1OC)-c1c3c(c(OC)c4c1[C@H](C2)NCC4)OCO3 [(+)-O-Methylcassythine 7, (+)-O-methylcassythine]
MCR-5 cells; human, 1 µg/mL
  Cytotoxicity MCR-5 cells 1 µg/mL: 4
MCR-5 cells; human, 10 µg/mL
  Cytotoxicity MCR-5 cells 10 µg/mL: 61
KB cells
  Cytotoxicity KB cells 10 µg/mL: 49
[1]; [4]
  IC50: 3.1 µg/mL
[1]; [3]
  IC50: 8.6 µM

## COc1cc2c(cc1OC)-c1c(O)c(OC)c(OC)c3c1[C@H](C2)N(C)CC3 [(+)-Preocoteine 1, (+)-preocoteine]
MCR-5 cells; human, 10 µg/mL
  Cytotoxicity MCR-5 cells 10 µg/mL: 20
KB cells
  Cytotoxicity KB cells 10 µg/mL: 23
[1]; [4]
  IC50: 0.5 µg/mL
[1]; [3]
  IC50: 1.3 µM
Leishmania major; Leishmania major
  IC50: > 100 µg/mL and > 100 µM

## COc1ccc2cc3[n+](cc2c1OC)CCc1cc2c(cc1-3)OCO2 [Berberine 11, berberine]
[1]; [3]
  IC50: 0.4 µg/mL and 900 nM
Leishmania major; Leishmania major
  IC50: 13 µg/mL and 35 µM
[2]
  Cytotoxicity (in words): cytotoxic

## CCN(CC)CCCC(C)Nc1ccnc2cc(Cl)ccc12 (stereo not shown) [Chloroquine, reference compound]
[1]; [4]
  IC50: 0.06 µg/mL and 100 nM

## N=C(N)c1ccc(OCCCCCOc2ccc(C(=N)N)cc2)cc1 [Pentamidine, reference compound]
Leishmania major; Leishmania major
  IC50: 28 µg/mL and 82 µM

## COc1cc2cc3[n+](cc2cc1OC)CCc1cc2c(cc1-3)OCO2 [Pseudoberberine 12, pseudoberberine]
[1]; [3]
  IC50: 0.5 µg/mL and 1.3 µM
Leishmania major; Leishmania major
  IC50: 3.5 µg/mL and 9 µM
[2]
  Cytotoxicity (in words): cytotoxic

## COc1cc(CCN(C)C)c2ccc3cc4c(c5c(=O)oc1c2c35)OCO4 [Thaliglucinone 10, thaliglucinone]
MCR-5 cells; MCR-5 (MRC5) cells, compound at 1 µg/mL in DMSO
  Cytotoxicity MCR-5 cells 1 µg/mL: 21
MCR-5 cells; MCR-5 (MRC5) cells, compound at 10 µg/mL in DMSO
  Cytotoxicity MCR-5 cells 10 µg/mL: 79
[1]; [4]
  IC50: 2.4 µg/mL
[1]; [3]
  IC50: 6.7 µM
Leishmania major; Leishmania major
  IC50: 63 µg/mL and 173 µM

## (+)-thalicberine [(+)-Thalicberine 8]
MCR-5 cells
  Cytotoxicity MCR-5 cells 10 µg/mL: 29
KB cells
  Cytotoxicity KB cells 10 µg/mL: 43
[1]; FcB1 Colombia strain
  Antimalarial IC50 Plasmodium falciparum FcB1 Colombia: 2.5 µg/mL
[1]; FcB1 Colombia strain, read-out: Antimalarial IC50 Plasmodium falciparum FcB1 Colombia
  IC50: 4.2 µM
Leishmania major
  IC50: 90 µM
  Leishmanicidal IC50 Leishmania major: 55 µg/mL
